The target in experiment [1] is T1, human recombinant α1b adrenoceptor (Homo sapiens, UniProt P35368).
T1 construct: expressed in transfected cells; host or cells: CHO cells (membranes)
T1 sequence (P35368 1-520): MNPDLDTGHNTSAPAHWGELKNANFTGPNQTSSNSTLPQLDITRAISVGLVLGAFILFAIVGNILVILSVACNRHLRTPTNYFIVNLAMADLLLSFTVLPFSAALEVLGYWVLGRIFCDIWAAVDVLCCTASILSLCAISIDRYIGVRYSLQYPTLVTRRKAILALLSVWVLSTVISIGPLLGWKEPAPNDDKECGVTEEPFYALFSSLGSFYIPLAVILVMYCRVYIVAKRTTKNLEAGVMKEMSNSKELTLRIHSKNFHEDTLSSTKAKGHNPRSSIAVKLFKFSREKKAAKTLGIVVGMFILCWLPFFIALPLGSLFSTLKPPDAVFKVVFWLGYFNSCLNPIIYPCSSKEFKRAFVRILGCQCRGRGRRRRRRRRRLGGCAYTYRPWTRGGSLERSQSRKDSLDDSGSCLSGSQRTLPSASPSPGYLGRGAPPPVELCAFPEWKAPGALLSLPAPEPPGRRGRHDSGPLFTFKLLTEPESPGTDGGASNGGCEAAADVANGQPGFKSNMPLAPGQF
The experiment can be described thus: Radioligand binding ([3H]prazosin) on membranes of CHO cells expressing cloned α1b adrenoceptor. The settings on record: human cloned receptor, CHO cell membranes, 0.2 nM [3H]prazosin; read-out: Affinity (Ki) α1b. The method, then: (§1) The determination of affinity for cloned subtypes of human α1 adrenergic receptors was performed in membranes from CHO cells (chinese hamster ovary cells) transfected by electroporation with DNA expressing the genes encoding each α1-adrenoceptor subtype, namely α1a, α1b and α1d.. Cloning and stable expression of the human α1-adrenoceptor gene were performed as previously described (Testa et al., Pharmacol. Comm. 6, 79-86 (1995)). CHO cell membranes were incubated in […] Tris pH 7.4 with 0.2 nM [^3H]prazosin, in a final volume of 1.02 ml for 30 minutes at 25°C, in the absence or presence of competing drugs (1 pM-10 µM). Non-specific binding was determined in the presence of 10 µM phentolamine. Incubation was stopped by addition of ice-cold Tris buffer and rapid filtration through 0.2% polyethyleneimine pretreated Schleicher & Schuell GF52 filters. Genomic clone G-21 coding for the human 5-HT1A-serotoninergic receptor was stably transfected in a human cell line (HeLa) (Fargin et al., J. Biol. Chem. 284, 14848-14852 (1989)). The HeLa cells were grown as monolayers in Dulbecco's modified Eagle's medium (DMEM), supplemented with 10% foetal calf serum and gentamicin (100 µg/ml), 5% CO2, at 37°C. The cells were detached from the growth flask at 95% confluence by a cell scraper and were lysed in ice-cold 5 mM Tris and 5-mM EDTA buffer (pH 7.4). The homogenates were centrifuged at 40000 x g x 20 minutes and the membranes were re-suspended in a small volume of ice-cold 5 mM Tris and 5-mM EDTA buffer (pH 7.4) and immediately frozen and stored at -70°C until use. On the experiment day, the cell membranes were re-suspended in a buffer containing 50 mM Tris (pH 7.4), 2.5 mM MgCl2, 10 µM pargyline (Fargin et al., Nature 335, 358-360 (1988)). […] The incubation was stopped by addition of ice-cold Tris buffer and rapid filtration through 0.2%-polyethyleneimine-pretreated Schleicher & Schuell filters. The inhibition of specific binding of the radioligands by the drugs was analysed to estimate the IC50 value by using the non-linear curve-fitting programme Allfit (De Lean et al., Am. J. Physiol. 235, E97-E102 (1978)). The IC50 value was converted to an affinity constant (Ki) by the equation of Cheng & Prusoff (Biochem. Pharmacol. 22, 3099-3108 (1973)). Data were expressed as mean of Ki.

For experiment [2], the target named is T2, human 5-HT1A-serotoninergic receptor (Homo sapiens, UniProt P08908).
T2 construct: expressed in transfected cells; host or cells: HeLa cells (membranes)
T2 sequence (P08908 1-422): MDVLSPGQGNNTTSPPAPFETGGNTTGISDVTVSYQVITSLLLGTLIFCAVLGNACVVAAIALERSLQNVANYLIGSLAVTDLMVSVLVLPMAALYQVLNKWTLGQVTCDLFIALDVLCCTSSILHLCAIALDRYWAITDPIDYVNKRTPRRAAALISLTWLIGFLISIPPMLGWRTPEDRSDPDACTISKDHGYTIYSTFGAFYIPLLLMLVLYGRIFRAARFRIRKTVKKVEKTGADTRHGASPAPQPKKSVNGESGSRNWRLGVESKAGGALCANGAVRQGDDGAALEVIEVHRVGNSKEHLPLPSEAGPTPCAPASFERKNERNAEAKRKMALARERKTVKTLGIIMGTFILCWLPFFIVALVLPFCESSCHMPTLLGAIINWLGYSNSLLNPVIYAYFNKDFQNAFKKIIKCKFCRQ
The experiment in a line: Radioligand binding ([3H]8-OH-DPAT) on membranes of HeLa cells expressing cloned 5-HT1A receptor. The settings on record: read-out: Affinity (Ki) 5-HT1A. The method, then: as §1

The mark [3] stands for this setting: human cloned receptor, HeLa cell membranes, 1.2 nM [3H]8-OH-DPAT.

Like-named read-outs stand apart in the source and are kept apart here.

In general, Ki refers to the dissociation constant of the complex between target and ligand, obtained from inhibition or displacement. On to `O=C1CC2(CCCC2)CC(=O)N1CCN1CCN(c2cc(Cl)ccc2Cl)CC1` [Example 1, 8-{2-[4-(2,5-Dichlorophenyl)-1-piperazinyl]-ethyl}-8-azaspiro[4.5]decane-7,9-dione], for which the values for the Ki in experiment [1] and in experiment [2] (setting [3]) were 9.9 nM and 36 nM, respectively.

Regarding `O=C1CCCC(=O)N1CCN1CCN(c2cc(Cl)ccc2Cl)CC1` [Example 2, 1-{2-[4-(2,5-Dichlorophenyl)-1-piperazinyl]-ethyl}-piperidinyl-2,6-dione], the inhibition constant (Ki) in experiment [1] was 54.1 nM; in experiment [2] (setting [3]), 258 nM.

`Cc1ccc(F)c(N2CCN(CCN3C(=O)CC4(CCCC4)CC3=O)CC2)c1` [Example 4, 8-{2-[4-(2-Fluoro-5-methylphenyl)-1-piperazinyl]-ethyl}-8-azaspiro[4.5]decane-7,9-dione]: the Ki in experiment [1] worked out at 119 nM; in experiment [2] (setting [3]), 52.3 nM.

With `Cc1ccc(C)c(N2CCN(CCN3C(=O)CC4(CCCC4)CC3=O)CC2)c1` [Example 5, 8-{2-[4-(2,5-Dimethylphenyl)-1-piperazinyl]-ethyl}-8-azaspiro[4.5]decane-7,9-dione], the Ki in experiment [1] was 168 nM; in experiment [2] (setting [3]) it was 275 nM.

In the case of `O=C1CC2(CCCC2)CC(=O)N1CCN1CCN(c2cc(C(F)(F)F)ccc2F)CC1` [Example 6, 8-{2-[4-(2-Fluoro-5-trifluoromethylphenyl)-1-piperazinyl]-ethyl}-8-azaspiro[4.5]decane-7,9-dione], the Ki in experiment [1] is over 1000 nM; in experiment [2] (setting [3]), 160 nM.

On to `O=C1CC2(CCCC2)CC(=O)N1CCN1CCN(c2cc(Br)ccc2Br)CC1` [Example 7, 8-{2-[4-(2,5-Dibromophenyl)-1-piperazinyl]-ethyl}-8-azaspiro[4.5]decane-7,9-dione], for which the Ki in experiment [1] is 47.5 nM; in experiment [2] (setting [3]) it was 62.2 nM.

Consider `N#Cc1ccc(Cl)cc1N1CCN(CCN2C(=O)CC3(CCCC3)CC2=O)CC1` [Example 8, 8-{2-[4-(5-Chloro-2-cyanophenyl)-1-piperazinyl]-ethyl}-8-azaspiro[4.5]decane-7,9-dione], for which the inhibition constant (Ki) in experiment [1] is 17 nM; in experiment [2] (setting [3]) it was 29.6 nM.

Turning to `O=C1CC2(CCCC2)CC(=O)N1CCN1CCN(c2cc(F)ccc2Cl)CC1` [Example 9, 8-{2-[4-(2-Chloro-5-fluorophenyl)-1-piperazinyl]-ethyl}-8-azaspiro[4.5]decane-7,9-dione], the Ki came to 10.1 nM in experiment [1] and 12.1 nM in experiment [2] (setting [3]).

For `O=C1CC2(CCCC2)CC(=O)N1CCN1CCN(c2cc(I)ccc2Cl)CC1` [Example 10, 8-{2-[4-(2-Chloro-5-iodophenyl)-1-piperazinyl]-ethyl}-8-azaspiro[4.5]decane-7,9-dione], the Ki in experiment [1] was 448 nM; in experiment [2] (setting [3]) it was 804 nM.

On to `O=C1CC2(CCCCC2)CC(=O)N1CCN1CCN(c2cc(Cl)ccc2Cl)CC1` [Example 11, 3-{2-[4-(2,5-Dichlorophenyl)-1-piperazinyl]-ethyl}-3-azaspiro[5.5]undecane-2,4-dione], for which the Ki in experiment [1] was 52.9 nM; in experiment [2] (setting [3]) it was 128 nM.

As for `CCC1(C)CC(=O)N(CCN2CCN(c3cc(Cl)ccc3Cl)CC2)C(=O)C1` [Example 13, 1-{2-[4-(2,5-Dichlorophenyl)-1-piperazinyl]-ethyl}-4-ethyl-4-methylpiperidinyl-2,6-dione], the Ki in experiment [1] came out at 43.4 nM; in experiment [2] (setting [3]) it was 104 nM.

Turning to `O=C1CC2(CCCC2)C(=O)N1CCN1CCN(c2cc(Cl)ccc2Cl)CC1` [Example 14, 2-{2-[4-(2,5-Dichlorophenyl)-1-piperazinyl]-ethyl}-2-azaspiro[4.4]nonane-1,3-dione], the Ki was 83.6 nM in experiment [1] and over 1000 nM in experiment [2].

On to `O=C1CC2(CCC2)CC(=O)N1CCN1CCN(c2cc(Cl)ccc2Cl)CC1` [Example 15, 7-{2-[4-(2,5-Dichlorophenyl)-1-piperazinyl]-ethyl}-7-azaspiro[3.5]nonane-6,8-dione], for which the inhibitory constant (Ki) in experiment [1] was 79.6 nM; in experiment [2] it was over 1000 nM.

With `CC(CN1CCN(c2cc(Cl)ccc2Cl)CC1)N1C(=O)CC2(CCCC2)CC1=O` (stereo not drawn) [Example 16, 8-{2-[4-(2,5-Dichlorophenyl)-1-piperazinyl]-1-methylethyl}-8-azaspiro[4.5]decane-7,9-dione], the Ki in experiment [1] came out at 13.1 nM; in experiment [2] (setting [3]) it was 207 nM.

For the compound `O=C1CC2(CCCC2)CC(=O)N1CCN1CCC(c2cc(Cl)ccc2Cl)CC1` [Example 17, 8-{2-[4-(2,5-Dichlorophenyl)-1-piperidinyl]-ethyl}-8-azaspiro[4.5]decane-7,9-dione], the figures for the inhibition constant (Ki) in experiment [1] and in experiment [2] (setting [3]) were 37.6 nM and 248 nM, respectively.

On to `CN(CCN1C(=O)CC2(CCCC2)CC1=O)CCN(C)c1cc(Cl)ccc1Cl` [Example 18, N-(2,5-Dichlorophenyl)-N'-{2-(7,9-dioxo-8-azaspiro[4.5]decane-8-yl)-ethyl}-N,N'-dimethyl-1,2-diaminoethane], for which the Ki in experiment [1] worked out at 915 nM; in experiment [2] (setting [3]), 433 nM.

As to `O=C1CC2(C=CN1CCN1CCN(c3cc(Cl)ccc3Cl)CC1)CCCC2` [Example 20, 8-{2-[4-(2,5-Dichlorophenyl)-1-piperazinyl]-ethyl}-8-azaspiro[4.5]dec-9,10-en-7-one], the values for the Ki in experiment [1] and in experiment [2] (setting [3]) were 15.8 nM and 91.9 nM, respectively.

As for `O=C1CC2(CCCC2)CCN1CCN1CCN(c2cc(F)c(F)cc2F)CC1` [Example 24, 8-{2-[4-(2,4,5-Trifluorophenyl)-1-piperazinyl]-ethyl}-8-azaspiro[4.5]decane-7-one], the inhibition constant (Ki) is 22.7 nM in experiment [1] and 214 nM in experiment [2].

For the origin of these results see patent EP1200406B1, “CYCLIC AMIDES AND IMIDES HAVING SELECTIVE ANTAGONIST ACTIVITY AT ALPHA-1D ADRENERGIC RECEPTOR” (RECORDATI INDUSTRIA CHIMICA E FARMACEUTICA S.p.a., priority 1999, dated 2001).
